Data taken from patent US8629132B2, “Kinase inhibitors” (Genosco, priority 2009, dated 2014).

What was measured:
FAK = molecular target: T1, FAK (Homo sapiens, UniProt Q05397); experiment: Kinase inhibition assay: FAK; type: biochemical; details: at 1 μM concentration
T1 construct: truncated human FAK, RET, FLT3, JAK2, and LRRK2; purchased Carna Biosciences
Description: Compounds of the present invention were tested for their capacity to inhibit a kinase panel which includes, but are not limited to, spleen tyrosine kinase (SYK), zeta-chain-associated protein kinase 70 (ZAP70), PTK2B protein tyrosine kinase 2 (PYK2), focal adhesion kinase (FAK), provirus integration of maloney kinase 1 (PIM1), rearranged during transfection kinase (RET), Fms-like tyrosine kinase 3 (FLT3), Janus kinase 2 (JAK2), and leucine-rich repeat kinase 2 (LRRK2).
Inhibition of SYK, ZAP70, PYK2, FAK, PIM1, RET, FLT3, JAK2 and LRRK2 Kinase Activity
Compounds of the invention were initially diluted to 10 mM in 100% DMSO (CALBIOCHEM™) for storage and made into kinase buffer solution to create a compound concentration ranging from 1 uM and 10 uM. Serial dilutions of compounds of the invention were dispensed into a 96-well plate (GREINER BIOSCIENCES™) at 6 μL each. Purified full-length human SYK, ZAP70, PIM1, PYK2 and truncated human FAK, RET, FLT3, JAK2, and LRRK2 (CARNA BIOSCIENCES™) were diluted in kinase buffer and added to the compound solutions and pre-incubated for 30 minutes at room temperature (1 hour for PYK2). […] The reaction mixture was incubated for 1 hour (2 hours for PYK2). Following the incubation, the stop solution made with EDTA, water, and Lance detection buffer ([…]™) was added (12μL each) to stop phosphorylation. […] The IC50 value of test compound was calculated at Gradpad Prism 5 unless specified otherwise.

FLT3 = molecular target: T2, FLT3 (Homo sapiens, UniProt P36888); experiment: Kinase inhibition assay: FLT3; type: biochemical
T2 construct: truncated human FAK, RET, FLT3, JAK2, and LRRK2; purchased Carna Biosciences
T2 sequence (P36888 564-993 limits assumed): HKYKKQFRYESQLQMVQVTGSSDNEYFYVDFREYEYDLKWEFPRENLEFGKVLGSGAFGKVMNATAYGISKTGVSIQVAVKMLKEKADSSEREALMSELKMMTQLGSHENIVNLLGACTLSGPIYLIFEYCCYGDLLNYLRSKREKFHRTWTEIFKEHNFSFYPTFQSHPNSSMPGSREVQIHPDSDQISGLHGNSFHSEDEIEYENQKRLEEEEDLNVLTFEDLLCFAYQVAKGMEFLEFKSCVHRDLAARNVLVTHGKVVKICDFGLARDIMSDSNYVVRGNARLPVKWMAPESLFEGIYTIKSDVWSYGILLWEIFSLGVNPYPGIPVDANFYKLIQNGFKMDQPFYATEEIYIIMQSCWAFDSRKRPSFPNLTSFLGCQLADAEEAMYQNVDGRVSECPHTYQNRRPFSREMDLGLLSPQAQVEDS

K1T = K1T (Homo sapiens, UniProt P10721); experiment: Kinase inhibition assay: KIT; type: biochemical
Chain of K1T (P10721 26-976): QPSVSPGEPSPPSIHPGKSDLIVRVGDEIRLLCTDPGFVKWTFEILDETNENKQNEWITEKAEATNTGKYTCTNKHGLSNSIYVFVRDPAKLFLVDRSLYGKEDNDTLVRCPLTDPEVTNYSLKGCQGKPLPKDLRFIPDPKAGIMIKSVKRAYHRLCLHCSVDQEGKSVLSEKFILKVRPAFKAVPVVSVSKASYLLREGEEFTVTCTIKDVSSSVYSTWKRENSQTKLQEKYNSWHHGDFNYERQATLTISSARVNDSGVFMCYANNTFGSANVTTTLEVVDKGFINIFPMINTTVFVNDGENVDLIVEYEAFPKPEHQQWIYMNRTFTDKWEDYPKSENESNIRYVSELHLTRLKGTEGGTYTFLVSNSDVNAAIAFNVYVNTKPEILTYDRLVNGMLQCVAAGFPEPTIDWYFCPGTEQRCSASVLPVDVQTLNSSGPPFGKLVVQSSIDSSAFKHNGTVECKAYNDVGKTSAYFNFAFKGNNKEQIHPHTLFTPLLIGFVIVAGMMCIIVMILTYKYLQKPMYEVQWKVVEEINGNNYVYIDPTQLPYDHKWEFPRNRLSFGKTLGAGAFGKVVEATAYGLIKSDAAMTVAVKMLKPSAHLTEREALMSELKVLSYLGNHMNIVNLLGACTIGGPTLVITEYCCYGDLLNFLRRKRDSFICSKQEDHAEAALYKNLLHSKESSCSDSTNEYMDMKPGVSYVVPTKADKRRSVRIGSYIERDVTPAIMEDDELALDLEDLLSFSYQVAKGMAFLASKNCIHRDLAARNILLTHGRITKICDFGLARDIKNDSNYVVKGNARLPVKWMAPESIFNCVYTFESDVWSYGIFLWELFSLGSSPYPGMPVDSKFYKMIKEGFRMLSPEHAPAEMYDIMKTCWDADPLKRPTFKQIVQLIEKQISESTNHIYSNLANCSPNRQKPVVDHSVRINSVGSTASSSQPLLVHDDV

HEL cells = experiment: Cell viability assay: JAK2 inhibition; type: cell-based, human
Description: Compounds of the invention are tested for their effects on JAK2 inhibition in human erythroleukemic cell line (HEL) to illustrate potential efficacy at the cellular level. The Janus-associated kinase (JAK) family, comprised of four different protein tyrosine kinases JAK1, JAK2, JAK3, and TYK2, plays an important role in cellular survival, proliferation, and differentiation. V617F, a unique mutation in the JAK2 gene (a valine-to-phenylalanine substitution) results in constitutive kinase activity and promotes deregulated hematopoiesis. JAK2 V617F is frequently detected in myeloproliferative disorders (MPDs), a group of clonal hematopoietic stem cell disorders that include polycythemia vera (PV), essential thrombocythemia (ET), and idiopathic myelofibrosis (IMF), all of which have the potential to transform to acute myeloid leukemia. JAK2 V617F is constitutively phosphorylated and able to activate downstream signaling in the absence of cytokine stimulation.
Compounds of the present invention were tested for their effects on viability of HEL cells. For cell viability assay, HEL cells expressing human JAK2 V617F were obtained from the American Type Culture Collection (ATCC, Manassas, Va.). This cell line was maintained with Roswell Park Memorial Institute (RPMI) medium (HyClone™) containing 10 bovine calf serum (BCS; Hyclone™) supplemented iron. The HEL cells were seeded at 2×10^4 cells in 96 well culture plates, and serially diluted compound was then added. After a 72-hour incubation period at 37° C., viability of cells was measured using the ATPLite 1 step assay (Perkin-Elmer™) that is based on the quantification of ATP from viable cells. CellTiter Aqueous assay (Promega™) was also performed in parallel as an orthogonal assay. IC50 values were calculated using nonlinear regression and defined as the concentration needed for a 50 reduction in luminescence or absorbance treated versus untreated control cells (Prism™ Software).

JAK2 = JAK2 (Homo sapiens, UniProt O60674); experiment: In vitro kinase inhibition profile (Ambit Biosciences); type: binding; set-up: JAK2(JH1domain-catalytic); purchased Ambit Biosciences; details: reported as percent control, lower numbers indicate stronger activities
Chain of JAK2 (O60674 849-1124 limits assumed): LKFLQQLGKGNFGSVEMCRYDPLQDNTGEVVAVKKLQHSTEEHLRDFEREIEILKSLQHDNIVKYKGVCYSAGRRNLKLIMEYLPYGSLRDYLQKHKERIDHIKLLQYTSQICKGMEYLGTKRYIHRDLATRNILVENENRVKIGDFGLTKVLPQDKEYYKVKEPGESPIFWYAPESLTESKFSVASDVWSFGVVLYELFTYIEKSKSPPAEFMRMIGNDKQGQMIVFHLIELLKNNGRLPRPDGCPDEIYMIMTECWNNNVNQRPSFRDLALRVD
Description: Up to 518 different kinases have been identified in humans. To determine the scope of inhibitory effects of a representative compound of Formula (I) on known kinases, Compound 82 was tested against 104 commercially available kinases (Ambit Biosciences™). 104 kinases included ABL1(E255K)-phosphorylated, ABL1(T315I)-phosphorylated, ABL1-phosphorylated, ACVR1B, ADCK3, AKT1, AKT2, ALK, AURKA, AURKB, AXL, BMPR2, BRAF, BRAF(V600E), BTK, CDK11, CDK2, CDK3, CDK7, CDK9, CHEK1, CSF1R, CSNK1D, CSNK1G2, DCAMKL1, DYRK1B, EGFR, EGFR(L858R), EPHA2, ERBB2, ERBB4, ERK1, FAK, FGFR2, FGFR3, FLT1, FLT3, FLT4, GSK3B, IGF1R, IKK-α, IKK-β, INSR, JAK2(JH1domain-catalytic), JAK3 (JH1 domain-catalytic), JNK 1, JNK2, JNK3, KIT, KIT(D816V), KIT(V559D,T6701), LKB1, LRRK2, LRRK2(G2019S), MAP3K4, MAPKAPK2, MARKS, MEK1, MEK2, MET, MKNK1, MKNK2, MLK1, MTOR, p38-alpha, p38-beta, PAK1, PAK2, PAK-4, PCTK1, PDGFRA, PDGFRB, PDPK1, PIK3C2B, PIK3CA, PIK3CG, PIM1, PIM2, PIM3, PKAC-alpha, PLK1, PLK3, PLK4, PRKCE, PYK2, RAF1, RET, R10K2, ROCK2, RSK2, SNARK, SRC, SRPK3, SYK, TAK1, TGFBR1, TIE2, TRKA, TSSK1B, TYK2(JH1domain-catalytic), ULK2, VEGFR2, YANK3 and ZAP70.
Inhibition activity of Compound 82 was reported as percent control where lower numbers indicate stronger activities.

T1 sequence (Q05397 376-1052 limits assumed): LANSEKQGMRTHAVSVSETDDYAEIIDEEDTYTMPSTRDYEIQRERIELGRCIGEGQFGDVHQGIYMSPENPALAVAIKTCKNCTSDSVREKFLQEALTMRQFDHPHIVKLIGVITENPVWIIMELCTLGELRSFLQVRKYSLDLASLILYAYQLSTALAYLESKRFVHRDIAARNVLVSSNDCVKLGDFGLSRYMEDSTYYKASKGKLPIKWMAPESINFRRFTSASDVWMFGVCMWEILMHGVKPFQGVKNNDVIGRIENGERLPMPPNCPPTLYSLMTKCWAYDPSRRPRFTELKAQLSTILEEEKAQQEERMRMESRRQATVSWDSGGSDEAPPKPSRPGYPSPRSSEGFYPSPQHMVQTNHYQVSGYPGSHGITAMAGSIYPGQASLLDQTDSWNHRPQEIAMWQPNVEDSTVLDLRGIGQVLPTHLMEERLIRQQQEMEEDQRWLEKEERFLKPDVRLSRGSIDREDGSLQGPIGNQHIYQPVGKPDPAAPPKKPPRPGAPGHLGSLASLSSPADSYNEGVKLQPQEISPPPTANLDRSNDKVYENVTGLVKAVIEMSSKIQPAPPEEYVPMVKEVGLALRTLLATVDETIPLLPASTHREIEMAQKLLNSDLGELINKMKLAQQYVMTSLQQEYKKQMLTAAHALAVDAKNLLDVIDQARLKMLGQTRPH

| inhibition at 1 µM (FAK) [%] | IC50 (FLT3) [nM] | IC50 (K1T) [nM] | % of control (JAK2) [%] | SMILES | inhibition level compared with Sorafenib (HEL cells; HEL) | IC50 (HEL cells; Homo sapiens, 72-hour incubation, HEL cells expressing JAK2 V617F, read-out: Cell Viability: JAK2 kinase Inhibition HEL (IC50 nM)) [nM] |
| --- | --- | --- | --- | --- | --- | --- |
| 70.7 | 1.9 | 137 |  | COc1cc(Nc2ncc(C)c(-n3cc(C)c(CO)c3)n2)cc(OC)c1OC [Compound 21, (4-methyl-1-(5-methyl-2-(3,4,5-trimethoxyphenylamino)pyrimidin-4-yl)-1H-pyrrol-3-yl)methanol] | greater than those exhibited by Sorafenib | 144 |
|  |  |  | 3 | Cc1cc(C)cc(Nc2ncc(F)c(-n3cc(C)c(CN4CC[C@@H](O)C4)c3)n2)c1 [Compound 82, (R)-1-((1-(2-(3,5-dimethylphenyl-amino)-5-fluoropyrimidin-4-yl)-4-methyl-1H-pyrrol-3-yl)methyl) pyrrolidin-3-ol] |  |  |
